Test results: article PMC8799717, “Pharmacological targeting PIKfyve and tubulin as an effective treatment strategy for double-hit lymphoma” (Cell Death Discovery, 2022)

Legend:
Test in all cases: biochemical
Parameters in all cases: KINOMEscan active-site-directed competition binding panel, 468 kinases, percent of DMSO control at 1 uM
Settings in all cases: KINOMEscan binding, percent of DMSO control; read-out: Ctrl%
CSNK1E = CSNK1E (Homo sapiens, UniProt P49674)
DRAK2 = molecular target: T1, DRAK2 (Homo sapiens, UniProt O94768)
T1 construct: gene STK17B
T1 sequence (O94768 whole entry): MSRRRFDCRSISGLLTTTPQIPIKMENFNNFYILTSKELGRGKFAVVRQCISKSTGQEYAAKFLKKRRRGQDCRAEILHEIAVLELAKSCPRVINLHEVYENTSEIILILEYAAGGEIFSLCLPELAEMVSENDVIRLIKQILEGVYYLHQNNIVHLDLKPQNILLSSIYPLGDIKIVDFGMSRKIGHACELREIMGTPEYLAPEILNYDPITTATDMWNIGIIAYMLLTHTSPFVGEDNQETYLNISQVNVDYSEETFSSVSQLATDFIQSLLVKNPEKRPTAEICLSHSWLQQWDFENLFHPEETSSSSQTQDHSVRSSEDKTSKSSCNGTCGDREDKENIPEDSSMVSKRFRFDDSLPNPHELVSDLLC

EGFR(T790M) = EGFR(T790M) (Homo sapiens, UniProt P00533, T790M)
EGFR(T790M), sequence (P00533 whole entry T790M): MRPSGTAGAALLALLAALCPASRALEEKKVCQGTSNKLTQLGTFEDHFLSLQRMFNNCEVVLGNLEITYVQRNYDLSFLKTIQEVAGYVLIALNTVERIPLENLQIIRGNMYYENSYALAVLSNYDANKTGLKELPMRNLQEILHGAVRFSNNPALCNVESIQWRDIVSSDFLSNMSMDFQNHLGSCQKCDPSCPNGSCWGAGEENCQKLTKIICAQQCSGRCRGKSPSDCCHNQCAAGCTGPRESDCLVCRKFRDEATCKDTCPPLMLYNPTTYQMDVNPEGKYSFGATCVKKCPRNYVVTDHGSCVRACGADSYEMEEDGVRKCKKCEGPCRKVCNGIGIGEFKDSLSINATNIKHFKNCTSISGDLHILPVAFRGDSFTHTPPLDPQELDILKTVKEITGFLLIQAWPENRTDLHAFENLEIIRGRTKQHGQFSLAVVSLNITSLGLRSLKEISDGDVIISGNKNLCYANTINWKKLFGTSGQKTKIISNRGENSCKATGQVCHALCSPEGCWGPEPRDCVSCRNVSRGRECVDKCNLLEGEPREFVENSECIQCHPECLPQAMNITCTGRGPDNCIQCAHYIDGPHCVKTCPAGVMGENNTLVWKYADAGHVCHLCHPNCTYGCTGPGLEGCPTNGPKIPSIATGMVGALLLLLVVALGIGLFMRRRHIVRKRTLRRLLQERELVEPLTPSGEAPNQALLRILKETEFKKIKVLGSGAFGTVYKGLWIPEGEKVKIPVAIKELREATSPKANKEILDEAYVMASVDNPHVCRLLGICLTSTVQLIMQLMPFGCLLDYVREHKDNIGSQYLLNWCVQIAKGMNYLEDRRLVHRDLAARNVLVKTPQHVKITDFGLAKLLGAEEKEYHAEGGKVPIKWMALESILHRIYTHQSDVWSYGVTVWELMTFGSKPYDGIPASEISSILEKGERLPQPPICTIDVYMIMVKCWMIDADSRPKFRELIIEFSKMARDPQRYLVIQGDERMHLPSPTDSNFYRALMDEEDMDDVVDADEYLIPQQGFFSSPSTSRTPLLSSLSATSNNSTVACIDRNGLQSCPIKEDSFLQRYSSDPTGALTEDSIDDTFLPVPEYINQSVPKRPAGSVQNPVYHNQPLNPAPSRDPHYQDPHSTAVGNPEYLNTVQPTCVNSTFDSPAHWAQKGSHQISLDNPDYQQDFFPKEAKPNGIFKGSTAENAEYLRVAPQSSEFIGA

EPHA1 = EPHA1 (Homo sapiens, UniProt P21709)
FLT3(K663Q) = FLT3(K663Q) (Homo sapiens, UniProt P36888, K663Q)
FLT3(R834Q) = FLT3(R834Q) (Homo sapiens, UniProt P36888, R834Q)
HIPK2 = HIPK2 (Homo sapiens, UniProt Q9H2X6)
[1] = molecular target: T2, JAK3(JH1domain-catalytic) (Homo sapiens, UniProt P52333)
T2 construct: JH1domain-catalytic
T2 sequence (P52333 whole entry): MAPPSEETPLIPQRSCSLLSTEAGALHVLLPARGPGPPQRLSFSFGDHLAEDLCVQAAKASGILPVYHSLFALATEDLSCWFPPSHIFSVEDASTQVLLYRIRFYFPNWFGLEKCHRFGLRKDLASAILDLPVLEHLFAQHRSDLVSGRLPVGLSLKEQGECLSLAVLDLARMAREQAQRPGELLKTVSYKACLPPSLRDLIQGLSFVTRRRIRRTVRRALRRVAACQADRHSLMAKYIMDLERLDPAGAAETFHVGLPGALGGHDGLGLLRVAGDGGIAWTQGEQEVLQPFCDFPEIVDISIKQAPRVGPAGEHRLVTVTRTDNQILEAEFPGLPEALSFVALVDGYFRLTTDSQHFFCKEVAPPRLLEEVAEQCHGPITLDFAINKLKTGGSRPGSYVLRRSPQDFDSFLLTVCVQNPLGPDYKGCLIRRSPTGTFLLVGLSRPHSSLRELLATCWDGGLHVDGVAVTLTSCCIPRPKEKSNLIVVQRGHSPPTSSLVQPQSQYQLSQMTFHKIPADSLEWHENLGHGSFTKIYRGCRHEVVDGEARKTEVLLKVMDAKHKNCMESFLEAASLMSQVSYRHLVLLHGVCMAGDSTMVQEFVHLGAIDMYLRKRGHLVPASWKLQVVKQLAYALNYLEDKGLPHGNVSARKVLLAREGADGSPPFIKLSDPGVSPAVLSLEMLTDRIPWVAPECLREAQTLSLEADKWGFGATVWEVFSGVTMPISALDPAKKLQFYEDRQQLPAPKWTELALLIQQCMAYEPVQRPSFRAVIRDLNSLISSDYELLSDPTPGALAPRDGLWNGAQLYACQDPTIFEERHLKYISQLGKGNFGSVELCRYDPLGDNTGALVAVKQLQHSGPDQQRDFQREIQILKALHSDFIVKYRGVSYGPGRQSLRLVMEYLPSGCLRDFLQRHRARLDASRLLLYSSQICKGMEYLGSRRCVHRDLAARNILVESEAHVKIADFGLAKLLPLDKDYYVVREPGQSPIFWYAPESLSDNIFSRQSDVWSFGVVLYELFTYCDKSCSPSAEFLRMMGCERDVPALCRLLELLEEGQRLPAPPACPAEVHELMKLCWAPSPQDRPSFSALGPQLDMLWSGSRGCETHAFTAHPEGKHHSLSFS

KIT(A829P) = KIT(A829P) (Homo sapiens, UniProt P10721, A829P)
KIT(A829P), sequence (P10721 whole entry A829P): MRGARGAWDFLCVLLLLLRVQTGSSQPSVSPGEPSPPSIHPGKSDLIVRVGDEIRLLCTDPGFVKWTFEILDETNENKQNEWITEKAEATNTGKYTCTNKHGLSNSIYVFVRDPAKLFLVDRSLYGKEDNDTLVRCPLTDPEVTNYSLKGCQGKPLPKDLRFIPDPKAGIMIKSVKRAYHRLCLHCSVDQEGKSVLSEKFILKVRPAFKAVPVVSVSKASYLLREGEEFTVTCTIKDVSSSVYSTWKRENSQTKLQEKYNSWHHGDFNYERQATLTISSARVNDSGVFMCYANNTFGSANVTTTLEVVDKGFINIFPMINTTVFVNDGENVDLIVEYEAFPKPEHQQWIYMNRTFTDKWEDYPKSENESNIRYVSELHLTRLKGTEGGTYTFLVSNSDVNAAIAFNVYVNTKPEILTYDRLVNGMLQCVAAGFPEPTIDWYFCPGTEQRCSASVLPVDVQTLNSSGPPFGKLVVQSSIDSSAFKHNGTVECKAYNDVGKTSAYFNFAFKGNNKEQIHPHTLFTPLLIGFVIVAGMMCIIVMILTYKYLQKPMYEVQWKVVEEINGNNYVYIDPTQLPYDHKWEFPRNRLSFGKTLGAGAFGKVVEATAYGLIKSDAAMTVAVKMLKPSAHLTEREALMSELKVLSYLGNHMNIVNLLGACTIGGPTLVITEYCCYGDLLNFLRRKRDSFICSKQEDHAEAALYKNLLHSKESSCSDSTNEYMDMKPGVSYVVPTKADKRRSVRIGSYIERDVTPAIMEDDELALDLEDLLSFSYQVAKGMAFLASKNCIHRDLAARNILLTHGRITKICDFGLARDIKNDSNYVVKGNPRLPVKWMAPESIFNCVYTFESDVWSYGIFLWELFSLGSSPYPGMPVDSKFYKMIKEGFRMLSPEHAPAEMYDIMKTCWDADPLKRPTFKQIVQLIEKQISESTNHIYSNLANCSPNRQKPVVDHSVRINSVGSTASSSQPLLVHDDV

KIT(D816H) = KIT(D816H) (Homo sapiens, UniProt P10721, D816H)
KIT(D816H), sequence (P10721 whole entry D816H): as the sequence (P10721 whole entry A829P) above, with D816H, P829A counted along it

LIMK1 = LIMK1 (Homo sapiens, UniProt P53667)
LIMK1, sequence (P53667 whole entry): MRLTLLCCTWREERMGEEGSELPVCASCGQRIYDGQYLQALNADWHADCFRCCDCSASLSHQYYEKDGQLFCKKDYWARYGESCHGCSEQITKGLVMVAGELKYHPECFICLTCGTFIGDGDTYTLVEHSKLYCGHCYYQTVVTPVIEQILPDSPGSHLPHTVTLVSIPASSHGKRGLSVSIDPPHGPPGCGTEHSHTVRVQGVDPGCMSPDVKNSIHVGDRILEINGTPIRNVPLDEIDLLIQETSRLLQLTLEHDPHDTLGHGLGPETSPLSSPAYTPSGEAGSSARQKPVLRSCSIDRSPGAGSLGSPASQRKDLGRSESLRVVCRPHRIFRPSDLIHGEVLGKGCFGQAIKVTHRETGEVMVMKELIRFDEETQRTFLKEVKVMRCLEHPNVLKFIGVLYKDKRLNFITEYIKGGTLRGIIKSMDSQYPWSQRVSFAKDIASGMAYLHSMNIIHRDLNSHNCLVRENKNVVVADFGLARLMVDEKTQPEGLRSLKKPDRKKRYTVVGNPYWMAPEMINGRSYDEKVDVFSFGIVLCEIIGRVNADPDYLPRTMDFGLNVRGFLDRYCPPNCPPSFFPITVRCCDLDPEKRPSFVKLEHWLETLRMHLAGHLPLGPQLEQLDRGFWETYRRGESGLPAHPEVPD

MAST1 = MAST1 (Homo sapiens, UniProt Q9Y2H9)
MEK1 = molecular target: T3, MEK1 (Homo sapiens, UniProt Q02750)
T3 construct: gene MAP2K1

MEK4 = molecular target: T4, MEK4 (Homo sapiens, UniProt P45985)
T4 construct: gene MAP2K4

MST3 = molecular target: T5, MST3 (Homo sapiens, UniProt Q9Y6E0)
T5 construct: gene STK24

PDPK1 = PDPK1 (Homo sapiens, UniProt O15530)
PKAC-beta = molecular target: T6, PKAC-beta (Homo sapiens, UniProt P22694)
T6 construct: gene PRKACB

PKN2 = PKN2 (Homo sapiens, UniProt Q16513)
PLK1 = PLK1 (Homo sapiens, UniProt P53350)
PRKR = molecular target: T7, PRKR (Homo sapiens, UniProt P19525)
T7 construct: gene EIF2AK2
T7 sequence (P19525 whole entry): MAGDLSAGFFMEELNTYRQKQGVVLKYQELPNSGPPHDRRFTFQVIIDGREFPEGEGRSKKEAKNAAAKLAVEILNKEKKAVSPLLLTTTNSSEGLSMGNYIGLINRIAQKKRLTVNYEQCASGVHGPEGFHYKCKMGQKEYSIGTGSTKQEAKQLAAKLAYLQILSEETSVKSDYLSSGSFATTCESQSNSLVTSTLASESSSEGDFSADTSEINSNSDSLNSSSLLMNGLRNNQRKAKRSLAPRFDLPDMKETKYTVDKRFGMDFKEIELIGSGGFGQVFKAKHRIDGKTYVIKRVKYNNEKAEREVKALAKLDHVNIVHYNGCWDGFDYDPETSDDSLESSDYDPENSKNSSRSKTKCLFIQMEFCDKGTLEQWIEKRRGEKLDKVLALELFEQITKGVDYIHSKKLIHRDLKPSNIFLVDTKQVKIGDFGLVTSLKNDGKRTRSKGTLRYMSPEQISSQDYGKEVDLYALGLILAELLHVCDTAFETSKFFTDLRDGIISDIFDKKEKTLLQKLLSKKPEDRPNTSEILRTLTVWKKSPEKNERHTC

RET(V804M) = RET(V804M) (Homo sapiens, UniProt P07949, V804M)
TIE1 = TIE1 (Homo sapiens, UniProt P35590)
YANK2 = molecular target: T8, YANK2 (Homo sapiens, UniProt Q9NY57)
T8 construct: gene STK32B

YES = molecular target: T9, YES (Homo sapiens, UniProt P07947)
T9 construct: gene YES1

Compound: Cc1ccc(NC(=O)c2cccc(C(F)(F)F)c2)cc1Nc1cc(-c2cccnc2)nc2[nH]ccc12 [HZX-02-059]
- remaining binding at 1 µM (CSNK1E): 97%
- remaining binding at 1 µM (DRAK2): 88%
- remaining binding at 1 µM (EGFR(T790M)): 94%
- remaining binding at 1 µM (EPHA1): 78%
- remaining binding at 1 µM (FLT3(K663Q)): 98%
- remaining binding at 1 µM (FLT3(R834Q)): 100%
- remaining binding at 1 µM (HIPK2): 100%
- remaining binding at 1 µM [1]: 100%
- remaining binding at 1 µM (KIT(A829P)): 84%
- remaining binding at 1 µM (KIT(D816H)): 100%
- remaining binding at 1 µM (LIMK1): 72%
- remaining binding at 1 µM (MAST1): 100%
- remaining binding at 1 µM (MEK1): 100%
- remaining binding at 1 µM (MEK4): 78%
- remaining binding at 1 µM (MST3): 100%
- remaining binding at 1 µM (PDPK1): 89%
- remaining binding at 1 µM (PKAC-beta): 95%
- remaining binding at 1 µM (PKN2): 100%
- remaining binding at 1 µM (PLK1): 100%
- remaining binding at 1 µM (PRKR): 95%
- remaining binding at 1 µM (RET(V804M)): 95%
- remaining binding at 1 µM (TIE1): 100%
- remaining binding at 1 µM (YANK2): 100%
- remaining binding at 1 µM (YES): 86%
